Experimental data: PubChem BioAssay (NCI)
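Step 1: Grow cells in 96-well plates. Step 2: Expose to compound for 48 hours at 5 concentrations. Step 3: Interpolate endpoints linearly; if unreached, use highest concentration. At the TGI there is no net growth.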

What was measured:
Test in all cases: NCI tumour cell line growth inhibition, 48 h
786-0 renal = tested on: 786-0 renal
HOP-62 NSCLC = tested on: HOP-62 NSCLC
MDA-MB-435 = tested on: MDA-MB-435
A498 renal = tested on: A498 renal
OVCAR-8 ovarian = tested on: OVCAR-8 ovarian
HS 578T breast = tested on: HS 578T breast
MCF7 breast = tested on: MCF7 breast
COLO 205 colon = tested on: COLO 205 colon
UO-31 renal = tested on: UO-31 renal
MDA-N = tested on: MDA-N
OVCAR-4 ovarian = tested on: OVCAR-4 ovarian
PC-3 prostate = tested on: PC-3 prostate
SF-268 CNS = tested on: SF-268 CNS
HT29 colon = tested on: HT29 colon
TK-10 renal = tested on: TK-10 renal
IGROV1 ovarian = tested on: IGROV1 ovarian
NCI-H23 lung = tested on: NCI-H23 lung
CCRF-CEM leukemia = tested on: CCRF-CEM leukemia
EKVX NSCLC = tested on: EKVX NSCLC
BT-549 breast = tested on: BT-549 breast

Row | SMILES | TGI (786-0 renal) [µM] | TGI (HOP-62 NSCLC) [µM] | TGI (MDA-MB-435) [µM] | TGI (A498 renal) [µM] | TGI (OVCAR-8 ovarian) [µM] | TGI (HS 578T breast) [µM] | TGI (MCF7 breast) [µM] | TGI (COLO 205 colon) [µM] | TGI (UO-31 renal) [µM] | TGI (MDA-N) [µM] | TGI (OVCAR-4 ovarian) [µM] | TGI (PC-3 prostate) [µM] | TGI (SF-268 CNS) [µM] | TGI (HT29 colon) [µM] | TGI (TK-10 renal) [µM] | TGI (IGROV1 ovarian) [µM] | TGI (NCI-H23 lung) [µM] | TGI (CCRF-CEM leukemia) [µM] | TGI (EKVX NSCLC) [µM] | TGI (BT-549 breast) [µM]
1 | Cc1ccc(-c2n[nH]c(=O)[nH]2)cc1[N+](=O)[O-] | > 100 | > 100 | > 100 | > 100 | > 100 | > 100 | > 100 | > 100 | > 100 | > 100 | > 100 | > 100 | > 100 | > 100 | > 100 | > 100 | > 100 | > 100 | > 100 | > 100
2 | Cc1cc(C)n(CN(Cn2nc(C)cc2C)C2CCCCC2)n1 | 48.9 | 69.6 | 45.4 | > 100 | 58.4 | > 100 | > 100 | 32 | 52.4 | 34.8 | 67.9 | 60 | 91.3 | 42.4 | > 100 | 50.1 | 56.8 | 44.8 | 84.5 | 49.6
3 | Cc1c(-c2ccccc2)c(C#N)c2nnc(C(N)=O)c(N)n12 | > 100 | > 100 | > 100 | > 100 | > 100 | > 100 | > 100 | > 100 | > 100 | > 100 | > 100 | > 100 | > 100 | > 100 | > 100 | > 100 | > 100 | > 100 | > 100 | > 100
4 | O=C1c2cccc3cccc(c23)C(=O)N1CCCNOCCONCCCN1C(=O)c2cccc3cccc(c23)C1=O | > 100 | > 100 | > 100 | > 100 | > 100 | > 100 | > 100 | > 100 | > 100 | > 100 | > 100 | > 100 | > 100 | > 100 | > 100 | > 100 | > 100 | 91.6 | > 100 | > 100
5 | O=c1[nH]c(N/N=C\C(O)C(O)C(O)CO)nc2ccccc12 (stereo not given) | > 100 | > 100 | > 100 | > 100 | > 100 | > 100 | > 100 | > 100 | > 100 | > 100 |  | > 100 | > 100 | > 100 | > 100 | > 100 | > 100 | > 100 | > 100 | > 100
6 | Cn1cnc2c(sc3nc4ccccc4n32)c1=N | > 100 | > 100 | > 100 | > 100 | > 100 | > 100 | > 100 | > 100 | > 100 | > 100 | > 100 | > 100 | > 100 | > 100 | > 100 | > 100 | > 100 | > 100 | > 100 | > 100
7 | NC(N)=NS(=O)(=O)c1ccc(NC(=O)c2ccc3nc4ccccc4c(Nc4ccc(S(N)(=O)=O)cc4)c3c2)cc1 | > 100 | > 100 | > 100 | > 100 | > 100 | > 100 | > 100 | > 100 | > 100 | > 100 | > 100 | > 100 | > 100 | > 100 | > 100 | > 100 | > 100 | > 100 | > 100 | > 100
8 | CC1(COS(=O)(=O)OCC2(C)COS(=O)(=O)OC2)COS(=O)(=O)OC1 | > 100 | > 100 | > 78.4 | 97.2 | > 100 | > 100 | > 59.9 | > 100 | > 100 | > 100 | > 100 | > 100 | > 100 | > 69.6 | > 100 | > 100 | > 89.4 | > 64.4 | > 100 | > 96.2
9 | Cc1cc(=O)oc2cc(O)ccc12 | > 100 | > 100 | > 100 | > 100 | > 100 | > 100 | > 100 | > 100 | > 100 | > 100 | > 100 | > 100 | > 100 | > 100 | > 100 | > 100 | > 100 | > 100 | > 100 | > 100
10 | CC(=O)OCC=C(CCl)CCC(Br)C(C)(C)Br (mixture of isomers) | > 10 | > 10 | > 10 | > 10 | > 10 | > 10 | > 10 | > 10 | > 10 | > 10 | > 10 | > 10 | > 10 | > 10 | > 10 | > 10 | > 10 | > 10 | > 10 | > 10
11 | CC(C)N(C)C(=O)C12C3C4C1C1C2C3C41C#N (stereo not given) | > 100 | > 100 | > 100 | > 100 | > 100 | > 100 | > 100 | > 100 | > 100 | > 100 | > 100 | > 100 | > 100 | > 100 | > 100 | > 100 | > 100 | > 100 | > 100 | > 100
12 | [N-]=[N+]=Nc1ccc(CNc2cc(=O)[nH]c(=O)[nH]2)cc1 | > 100 | > 100 | > 80 | > 100 | > 100 | > 100 | > 100 | > 100 | > 100 | > 100 | > 100 | > 100 | > 100 | > 100 | > 100 | > 100 | > 100 | > 100 | > 100 | > 100
13 | COc1c(C)c(OC)c2c(c1O)[C@@H]1[C@@H]3Cc4c(OC)c(C)c(OC)c(O)c4[C@H](CNC(=O)c4cnc5ccccc5n4)N3[C@@H](C#N)[C@H](C2)N1C | > 0.1 | > 0.1 | 0.00622 | 0.00894 | 0.0212 | 0.0192 | > 0.1 | 0.0114 | > 0.0423 | 0.00362 | 0.00898 | > 0.0556 | > 0.1 |  | 0.0248 |  | 0.0121 | 0.0054 | > 0.00703 | 0.02
14 | Cc1nc(C(N)=S)sc1C(=O)C/C(=N/N)C(=O)Nc1cccc(Cl)c1C | > 100 | > 100 | > 100 | > 100 | > 100 | > 100 | > 100 |  | > 100 | > 100 | > 100 | > 100 | > 100 | > 100 | > 100 | > 100 | > 100 | > 100 | > 100 | > 100
15 | COc1cc2c(/C=C3/C(=O)N(c4ccccc4)c4ccccc43)c(Cl)[nH]c2cc1C | > 44.6 | > 23.6 | 3.55 | > 71.4 | > 31.6 | > 100 | > 79 | 7.05 | > 26.9 | 5.52 | 6.55 | > 33.3 | > 53.8 | > 31 | 12.8 | > 25.8 | 7.81 | > 38.5 | > 31.4 | 7.56
16 | CCOC(=O)C(CS)NC(=O)CCCCCCCC(=O)NC(CS)C(=O)OCC (stereo not given) | > 100 | > 100 | > 100 | > 100 | > 100 | > 100 | > 100 | > 100 | > 100 | > 100 | > 100 | > 100 |  | > 100 | > 100 | > 100 | > 100 | > 100 | > 100 | > 100
17 | S=C(S)NCC1CCC(CNC(=S)S)CC1 (stereo not given) | 18.6 | 42.9 | 61.4 | > 100 | 47.9 | > 100 | 81.3 | > 100 | 47.5 | 81.4 | > 100 | 37.5 | > 100 | 42.3 | 51.7 | 33.9 | > 100 | > 100 | > 100 | > 100
18 | CSc1cc(N)ccc1N=Nc1ccc(S(N)(=O)=O)cc1 | 76.8 | 79 | 97.4 | > 100 | 53.6 | 73.9 | > 100 | 71.3 | 56.1 | > 100 | > 100 | > 100 | > 100 | > 100 | 72 | 72.3 | > 100 | 84.5 | > 100 | 36.4
19 | CSc1c(C#N)c2n(c3ccccc13)c1ccccc1[n+]2C | > 100 | 52.7 | 79.5 | 60 | 59.3 | > 100 | > 100 | 38.6 | 64.9 | 63.5 | > 100 | 78.5 | > 100 | 46.2 | 93.6 | > 100 | 70.7 | 47.6 | 56.9 | 74.3
20 | c1ccc2c(c1)nc1n2CCSC1 | > 100 | > 100 | > 100 | > 100 |  | > 100 | > 100 | > 100 | > 100 | > 100 | > 100 | > 100 | > 100 | > 100 | > 100 | > 100 | > 100 | > 100 | > 100 | > 100
21 | C=C(C)C1CC=C(C)C2(C1)OCC(C)(C)C(C)O2 (stereo not given) | 33 | 31.8 | 48 | 28.9 | 31.7 | > 100 | 33.9 | 34.5 | 40.8 | 47.4 | 41.1 | > 100 | 70.9 | 33.2 | > 100 | 48.2 | 48.4 | 83.4 | 62.3 | 36
22 | CC(C)OP(=O)(OC(C)C)C(C(C)C)N(C)/C(F)=N/C(F)(F)F (stereo not given) | > 100 | > 100 | > 100 | > 100 | > 100 | > 100 | > 100 | > 100 | > 100 | > 100 |  | > 100 | > 100 | > 100 | > 100 | > 100 | > 100 | > 100 | > 100 | > 100
23 | O=C(NCCCNCCNC(=O)c1cc(-c2ccccc2)nc2ccccc12)c1cc(-c2ccccc2)nc2ccccc12 | 3.24 | 3.06 | 3.15 | 4.76 | 3.16 | 4.5 | 3.15 | 3.21 | 3.89 | 3.36 | 4.08 | 3.09 |  | 2.91 | 3.14 | 3.59 |  | 3.42 | 5.2 | 29.4
24 | CC1(C)Oc2ccc(NC(=O)CCC(N)C(=O)O)cc2O1 (stereo not given) | > 100 | > 100 | > 100 | > 100 | > 100 | > 100 | > 100 | > 100 | > 100 | > 100 | > 100 | > 100 |  | > 100 | > 100 | > 100 | > 100 | > 100 | > 100 | > 100
